≈ marks a conversion by molar mass, not a printed value. Where “and” joins values, the source holds several entries; their conditions need not be identical. Identical values can stand only once. Like-named read-outs stand apart in the source and are kept apart here.

The test system of series [1] is rifampin-resistant mutants, derivatives of M. smegmatis ATCC19420. In words: MICs in rifampin-resistant mutants (cross-resistance levels). Format: cell-based, Mycobacterium smegmatis. The text has this:
(§1) MICs in Mycobacterium smegmatis ATCC 19420 and Mycobacterium smegmatis ATCC 19420 derivatives were quantified using broth microdilution assays as described [Clinical and Laboratory Standards Institute (CLSI/NCCLS) (2009) Methods for Dilution Antimicrobial Susceptibility Tests for Bacteria That Grow Aerobically; Approved Standard, Eighth Edition. CLIS Document M07-A8 (CLIS, Wayne Pa.)].

In series [2] the test system is Mycobacterium smegmatis ATCC 19420. Kind of series: Broth microdilution MIC, M. smegmatis. Format: cell-based. The settings on record: Mycolicibacterium smegmatis.
From the text: as §1

Series [3] relates to AAP1-resistant mutants, derivatives of M. smegmatis ATCC19420. In words: MICs in AAP1-resistant mutants (resistance and cross-resistance levels). The settings on record: for cross-resistance of AAP1-resistant mutants to the compound: MICs in AAP1-resistant mutants. Type of series: cell-based, Mycobacterium smegmatis.
Series [4] relates to Mycobacterium smegmatis ATCC 19420. Kind of series: Spontaneous resistance rate, fluctuation assays. Type of series: cell-based. As to conditions: 96 h fluctuation assays, M. smegmatis ATCC19420. As for the experimental part:
Resistance rates were determined using fluctuation assays [Luria, S., Delbrück, M. (1943) Genetics 28, 491-511.]. […] (at least 3 independent determinations for each concentration of each test compound). Resistance rates and 95% confidence intervals were calculated using the Ma-Sandri-Sarkar Maximum Likelihood Estimator (MSS-MLE [Ma, W., Sandri, GvH., Sarkar, S. (1992.) J. Appl. Probab. 29, 255-267; Sarkar, S., Ma, W., Sandri, GvH. (1992) Genetica 85, 173-179]) as implemented on the Fluctuation Analysis Calculator (FALCOR; www.keshavsingh.org/protocols/FALCOR.html [Hall, B., Ma, C., Liang, P., Singh, K (2009) Bioinformatics 25, 1564-1565]). Sampling correction was performed as in [Stewart, F., Gordon, D., Levin, B. (1990) Genetics 124, 175-185; Jones, M. (1993) Mutat. Res. 292, 187-189].

Series [5] deals with Mycobacterium tuberculosis H37Rv. Kind of series: Microplate Alamar Blue assay (MABA) MIC, M. tuberculosis. Format: cell-based. The text has this:
(§2) Minimal inhibitory concentrations (MICs) in Mycobacterium tuberculosis H37Rv and Mycobacterium avium ATCC 25291 were quantified using microplate Alamar Blue assays as described (MABA; [Collins, L. & Franzblau, S. (1997) Microplate Alamar Blue assay versus BACTEC 460 system for high-throughput screening of compounds against Mycobacterium tuberculosis and Mycobacterium avium. Antimicrob. Agents Chemother. 41, 1004-1009]).

For series [6], the target named is Mycobacterium tuberculosis RNA polymerase (Mycobacterium tuberculosis, UniProt P9WGY7+P9WGY9). In words: Run-off transcription assay with Mycobacterium tuberculosis RNA polymerase (radiochemical). Format: biochemical. As for the experimental part: Run-off transcription assays with Mycobacterium tuberculosis RNA polymerase were performed using reaction mixtures containing (10 μl): 0-100 μM test compound, 75 nM Mycobacterium tuberculosis RNA polymerase core enzyme, 300 nM Mycobacterium tuberculosis σ^A, 20 nM 130 bp DNA fragment containing positions −100 to −1 of the bacteriophage […] N25 promoter followed by positions +1 to +30 of the lacUV5-15 promoter of [Mukhopadhyay, J., Kapanidis, A., Mekler, V., Kortkhonjia, E., Ebright, Y., Ebright, R. (2001) Cell 106, 453-463], 25 nM [alpha-^32P]UTP (600 Bq/pmol) for an initial 2 min at 37° C. and 100 μM [alpha-^32P]UTP (6 Bq/pmol) for a subsequent 5 min at 37° C., 100 μM ATP, 100 μM GTP, 100 μM UTP, 100 μM CTP, 40 mM Tris-HCl, pH 8.0, 80 mM NaCl, 5 mM MgCl2, 2.5 mM DTT, and 12.7% glycerol. Reactions were terminated by addition of […] 80% formamide, 10 mM EDTA, 0.04% bromophenol blue, and 0.04% xylene cyanol, followed by heating for 5 min at 90° C. Reaction products were resolved by 15% urea-PAGE, and quantified using a storage-phosphor scanner.

Series [7] has as its system Vero E6 ATCC CRL1586 cells. Kind of series: Mammalian-cell cytotoxicity, minimal cytotoxic concentration (CellTiter96). Format: cell-based. The method, then:
Minimal cytotoxic concentrations (MCCs) against mammalian cells in culture were determined using Vero E6 ATCC CRL1586 cells and the CellTiter96 assay kit (Promega, Inc.). […]

Series [8] deals with Mycobacterium avium ATCC 25291. Kind of series: Microplate Alamar Blue assay (MABA) MIC, M. avium. As to conditions: ATCC25291, M. avium ATCC 25291. Type of series: cell-based.
From the text: as §2

Series [9] has as its system Mycobacterium smegmatis, Mycobacterium tuberculosis, and Mycobacterium avium. Kind of series: organism not typed. Format: cell-based. The settings on record: read-out: MICs, inhibition of mycobacterial growth.
In series [10] the target is Escherichia coli RNA polymerase (Escherichia coli, UniProt P0A8T7+P0A8V2). Kind of series: Analogous run-off transcription assay with Escherichia coli RNA polymerase. The settings on record: run-off transcription assays with Escherichia coli RNA polymerase; read-out: IC50 for inhibition of Escherichia coli RNA polymerase. Format: biochemical.
[11] abbreviates: Inhibition of mycobacterial RNA polymerase (IC50s), radiochemical transcription assays, M. tuberculosis RNA polymerase.
The mark [12] stands for this setting: ATCC19420, M. smegmatis ATCC 19420, read-out: MIC Mycobacterium smegmatis ATCC 19420.
[13] abbreviates: read-out: MIC Mycobacterium tuberculosis H37Rv.
[14] abbreviates: IC50 Mycobacterium tuberculosis RNA polymerase.

Mycobacterium tuberculosis RNA polymerase, sequence (P9WGZ1 whole entry, the tested form may be a part): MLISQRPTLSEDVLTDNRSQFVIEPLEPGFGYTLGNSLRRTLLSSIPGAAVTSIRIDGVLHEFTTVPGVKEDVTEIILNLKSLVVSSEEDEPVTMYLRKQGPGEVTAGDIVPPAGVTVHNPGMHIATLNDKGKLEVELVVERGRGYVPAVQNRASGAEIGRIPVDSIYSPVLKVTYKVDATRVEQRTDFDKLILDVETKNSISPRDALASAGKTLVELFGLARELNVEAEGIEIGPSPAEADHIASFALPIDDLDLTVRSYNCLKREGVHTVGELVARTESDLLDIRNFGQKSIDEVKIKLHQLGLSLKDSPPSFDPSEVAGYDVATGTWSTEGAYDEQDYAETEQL
Mycobacterium tuberculosis RNA polymerase, sequence (P9WGY5 whole entry, further chain, the tested form may be a part): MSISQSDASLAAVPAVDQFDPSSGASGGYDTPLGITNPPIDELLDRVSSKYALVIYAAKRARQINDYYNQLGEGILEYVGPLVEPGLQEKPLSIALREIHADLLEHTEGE
Mycobacterium tuberculosis RNA polymerase, sequence (P9WGY9 whole entry, the tested form may be a part): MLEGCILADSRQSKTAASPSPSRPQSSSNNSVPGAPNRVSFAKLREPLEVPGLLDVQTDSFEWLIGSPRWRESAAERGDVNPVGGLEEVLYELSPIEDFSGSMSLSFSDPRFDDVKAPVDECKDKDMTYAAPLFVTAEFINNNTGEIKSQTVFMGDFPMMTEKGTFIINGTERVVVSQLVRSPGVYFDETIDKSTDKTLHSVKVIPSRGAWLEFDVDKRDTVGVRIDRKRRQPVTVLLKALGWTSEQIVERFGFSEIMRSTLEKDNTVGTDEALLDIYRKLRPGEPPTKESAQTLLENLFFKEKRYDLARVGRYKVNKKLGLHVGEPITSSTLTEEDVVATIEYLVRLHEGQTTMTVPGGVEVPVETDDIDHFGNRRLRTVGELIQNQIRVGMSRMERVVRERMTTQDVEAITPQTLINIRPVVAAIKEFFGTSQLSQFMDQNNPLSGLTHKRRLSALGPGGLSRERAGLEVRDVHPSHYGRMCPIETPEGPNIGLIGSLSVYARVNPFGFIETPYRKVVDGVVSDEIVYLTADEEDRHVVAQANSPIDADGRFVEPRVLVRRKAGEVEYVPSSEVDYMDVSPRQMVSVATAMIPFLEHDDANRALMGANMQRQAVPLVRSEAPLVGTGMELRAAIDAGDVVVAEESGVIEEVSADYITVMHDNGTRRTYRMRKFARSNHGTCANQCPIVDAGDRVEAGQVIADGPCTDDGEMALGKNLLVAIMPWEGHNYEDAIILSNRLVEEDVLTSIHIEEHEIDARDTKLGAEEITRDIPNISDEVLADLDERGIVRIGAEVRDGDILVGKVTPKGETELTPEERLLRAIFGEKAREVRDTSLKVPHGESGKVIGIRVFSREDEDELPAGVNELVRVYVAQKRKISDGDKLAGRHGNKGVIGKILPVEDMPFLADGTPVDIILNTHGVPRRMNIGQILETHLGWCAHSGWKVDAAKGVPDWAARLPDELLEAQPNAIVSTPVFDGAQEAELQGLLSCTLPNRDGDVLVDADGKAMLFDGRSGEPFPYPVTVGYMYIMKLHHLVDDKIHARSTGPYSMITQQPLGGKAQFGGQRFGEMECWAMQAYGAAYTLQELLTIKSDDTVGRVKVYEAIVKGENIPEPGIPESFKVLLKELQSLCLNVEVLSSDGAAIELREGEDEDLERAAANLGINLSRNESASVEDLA
Mycobacterium tuberculosis RNA polymerase, sequence (P9WGI1 whole entry, further chain, the tested form may be a part): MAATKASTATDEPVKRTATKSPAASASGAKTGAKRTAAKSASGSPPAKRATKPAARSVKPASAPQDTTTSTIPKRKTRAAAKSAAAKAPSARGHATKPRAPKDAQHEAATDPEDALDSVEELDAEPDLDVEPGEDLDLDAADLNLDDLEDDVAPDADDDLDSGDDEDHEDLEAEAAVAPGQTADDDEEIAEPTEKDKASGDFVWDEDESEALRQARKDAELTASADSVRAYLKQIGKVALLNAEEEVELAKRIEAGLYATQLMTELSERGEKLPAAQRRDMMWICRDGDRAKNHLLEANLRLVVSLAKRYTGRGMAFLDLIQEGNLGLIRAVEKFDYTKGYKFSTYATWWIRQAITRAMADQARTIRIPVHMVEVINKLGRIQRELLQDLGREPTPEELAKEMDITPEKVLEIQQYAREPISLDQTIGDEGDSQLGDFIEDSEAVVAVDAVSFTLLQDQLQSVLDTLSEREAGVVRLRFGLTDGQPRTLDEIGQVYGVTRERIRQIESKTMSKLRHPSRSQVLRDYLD
Mycobacterium tuberculosis RNA polymerase, sequence (P9WGY7 whole entry, the tested form may be a part): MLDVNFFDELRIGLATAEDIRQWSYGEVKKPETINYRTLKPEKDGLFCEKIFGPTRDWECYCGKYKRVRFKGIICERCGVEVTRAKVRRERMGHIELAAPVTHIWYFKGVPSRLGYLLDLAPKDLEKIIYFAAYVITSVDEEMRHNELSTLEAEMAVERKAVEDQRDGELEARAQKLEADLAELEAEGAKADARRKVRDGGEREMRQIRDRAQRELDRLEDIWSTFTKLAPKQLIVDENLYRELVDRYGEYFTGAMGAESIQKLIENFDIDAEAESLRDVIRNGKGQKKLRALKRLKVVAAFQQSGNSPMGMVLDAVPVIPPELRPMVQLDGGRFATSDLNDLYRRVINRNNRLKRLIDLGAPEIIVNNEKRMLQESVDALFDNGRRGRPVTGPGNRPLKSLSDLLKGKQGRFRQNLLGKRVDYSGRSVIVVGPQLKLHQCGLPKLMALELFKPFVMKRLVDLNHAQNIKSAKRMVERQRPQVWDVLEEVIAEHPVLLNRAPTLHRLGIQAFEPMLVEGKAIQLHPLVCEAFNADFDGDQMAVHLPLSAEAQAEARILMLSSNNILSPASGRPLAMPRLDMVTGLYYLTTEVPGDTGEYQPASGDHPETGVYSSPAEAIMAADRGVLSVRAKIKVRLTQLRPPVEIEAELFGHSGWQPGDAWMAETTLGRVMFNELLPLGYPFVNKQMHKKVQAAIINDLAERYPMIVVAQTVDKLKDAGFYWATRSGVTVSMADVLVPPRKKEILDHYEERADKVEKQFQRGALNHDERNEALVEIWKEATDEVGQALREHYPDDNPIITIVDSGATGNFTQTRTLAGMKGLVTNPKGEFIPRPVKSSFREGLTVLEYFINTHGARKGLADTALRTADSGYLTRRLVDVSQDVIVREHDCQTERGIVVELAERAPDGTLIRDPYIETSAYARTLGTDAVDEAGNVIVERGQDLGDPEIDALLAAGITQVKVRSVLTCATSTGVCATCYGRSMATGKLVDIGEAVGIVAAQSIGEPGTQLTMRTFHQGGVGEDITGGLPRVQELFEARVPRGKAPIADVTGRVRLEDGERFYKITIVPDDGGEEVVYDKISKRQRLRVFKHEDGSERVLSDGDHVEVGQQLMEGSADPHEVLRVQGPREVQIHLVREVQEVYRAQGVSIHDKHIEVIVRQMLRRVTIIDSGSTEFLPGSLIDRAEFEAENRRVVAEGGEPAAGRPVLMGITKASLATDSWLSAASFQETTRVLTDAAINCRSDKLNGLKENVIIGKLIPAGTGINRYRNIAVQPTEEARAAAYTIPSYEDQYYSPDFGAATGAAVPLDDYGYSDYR

As usually defined, the IC50 is the concentration that inhibits the measured activity by half. Take `Cc1ccccc1NC(=O)C(Cc1ccccc1)NC(=O)c1ccccc1` (racemic) [AAP1, Nα-benzoyl-N-(2-methylphenyl)-D/L-phenylalaninamide]: the “cross-resistance of rifampin-resistant mutants to the compound” value in series [1] was “No rifampin-resistant mutant was found to exhibit cross-resistance”. For the same compound, the “hypersensitivity of rifampin-resistant mutants to the compound” value in series [1] is “One rifampin-resistant mutant was found to be hypersensitive”. In addition, the MIC in series [2] (ATCC19420, broth microdilution assays, M. smegmatis ATCC19420, read-out: Inhibition of mycobacterial growth in culture (MICs)) is 0.39 µg/mL (≈ 1.09 µM); in series [2] (ATCC19420, read-out: MIC with wild-type rpoB and wild-type rpoC, M. smegmatis ATCC19420 wild type, reference for AAP1-resistant mutants), 0.78 µg/mL (≈ 2.18 µM); in series [5] (MABA-MIC assays, read-out: Inhibition of mycobacterial growth in culture (MICs)) it was 6.25 µg/mL (≈ 17.4 µM). For the same compound, the “resistance of tested AAP1-resistant mutants” value in [3] (all tested AAP1-resistant mutants) is over 60 fold. Also, the “spontaneous resistance rate at 2xMIC” value in [4] (2xMIC) is on record as 5 × 10^−9/generation. The “spontaneous resistance rate at 4xMIC” value in series [4] (4xMIC) is reported as 4 × 10^−9/generation. Moreover, the “spontaneous resistance rate at 8xMIC” value in series [4] (8xMIC) is 5 × 10^−9/generation. Besides, in series [6] (setting [11]), the IC50 came to 680 nM.

Regarding `O=C(NC(Cc1ccccc1)C(=O)Nc1cc(F)ccc1N1CCNCC1)c1ccccc1F` (racemic) [IX-214, 2-fluoro-N-(1-((5-fluoro-2-(piperazin-1-yl)phenyl)amino)-1-oxo-3-phenylpropan-2-yl)benzamide], the “cross-resistance of rifampin-resistant mutants to the compound” value in [1] was “No rifampin-resistant mutant was found to exhibit cross-resistance”. The MIC in series [2] (setting [12]) was 0.195 µg/mL (≈ 0.42 µM); in series [8], 1.56 µg/mL (≈ 3.36 µM); in [5] (setting [13]), 1.56 µg/mL (≈ 3.36 µM); in [9], at least 0.073 µg/mL. Moreover, in series [7], the “MCC mammalian cells Vero E6 ATCC CRL1586” value stood at 7 µg/mL. In addition, in series [3], the “cross-resistance of AAP1-resistant mutants to the compound” value was “cross-resistance”.

In general, solubility refers to how much of the substance goes into solution per volume. Higher therefore signals a readily soluble substance. For `O=C(NC(Cc1ccccc1)C(=O)Nc1cccc2[nH]ncc12)c1ccccc1` (centres unmarked) [IX-37, N-(1-((1H-indazol-4-yl)amino)-1-oxo-3-phenylpropan-2-yl)benzamide], the “cross-resistance of rifampin-resistant mutants to the compound” value in [1] is “No rifampin-resistant mutant was found to exhibit cross-resistance”. Moreover, the MIC was 0.195 µg/mL (≈ 0.507 µM) in series [2] (setting [12]), 12.5 µg/mL (≈ 32.5 µM) in series [8] and 12.5 µg/mL (≈ 32.5 µM) in series [5] (setting [13]). In series [7], the “MCC mammalian cells Vero E6 ATCC CRL1586” value was found to be 55 µg/mL. Moreover, the “cross-resistance of AAP1-resistant mutants to the compound” value in [3] is “cross-resistance”. Also, the IC50 in series [10] was found to be 10 µM; in series [6] (setting [14]), 3300 nM. In “physchem”, this compound had a solubility of over 10 µM.

As for `O=C(N[C@H](Cc1ccccc1)C(=O)Nc1cc(F)ccc1N1CCNCC1)c1ccccc1F` [IX-214a, (R)-2-fluoro-N-(1-((5-fluoro-2-(piperazin-1-yl)phenyl)amino)-1-oxo-3-phenylpropan-2-yl)benzamide], the MIC in series [2] (setting [12]) is 0.073 µg/mL (≈ 0.157 µM); in series [8] it was under 0.195 µg/mL; in series [5] (setting [13]), 0.78 µg/mL (≈ 1.68 µM); in series [9], at least 0.073 µg/mL.

`Cc1ccccc1C(=O)NC(Cc1ccccc1)C(=O)Nc1cc(F)ccc1N1CCNCC1` (centres unmarked) [IX-215, N-(1-((5-fluoro-2-(piperazin-1-yl)phenyl)amino)-1-oxo-3-phenylpropan-2-yl)-2-methylbenzamide]: the “cross-resistance of rifampin-resistant mutants to the compound” value in series [1] was “No rifampin-resistant mutant was found to exhibit cross-resistance”. Also, the MIC in series [2] (setting [12]) amounted to 0.19 µg/mL (≈ 0.413 µM); in series [8] it was 0.78 µg/mL (≈ 1.69 µM); in series [5] (setting [13]), 1.56 µg/mL (≈ 3.39 µM). Further, in [7], the “MCC mammalian cells Vero E6 ATCC CRL1586” value turned out to be 7 µg/mL. Also, the “cross-resistance of AAP1-resistant mutants to the compound” value in [3] is listed as “cross-resistance”. The compound further displayed an IC50 in series [6] (setting [14]) of 140 nM.

As to `O=C(NC(Cc1ccccc1)C(=O)Nc1cc(F)ccc1N1CCNCC1)c1cccs1` (centres unmarked) [IX-216, N-(1-((5-fluoro-2-(piperazin-1-yl)phenyl)amino)-1-oxo-3-phenylpropan-2-yl)thiophene-2-carboxamide], in series [1], the “cross-resistance of rifampin-resistant mutants to the compound” value is “No rifampin-resistant mutant was found to exhibit cross-resistance”. The MIC amounted to 0.097 µg/mL (≈ 0.214 µM) in series [2] (setting [12]), 0.78 µg/mL (≈ 1.72 µM) in series [8] and 1.56 µg/mL (≈ 3.45 µM) in series [5] (setting [13]). Further, the “MCC mammalian cells Vero E6 ATCC CRL1586” value in series [7] came out at 11 µg/mL. For the same compound, in series [3], the “cross-resistance of AAP1-resistant mutants to the compound” value is listed as “cross-resistance”. The same compound had a 50% inhibitory concentration (IC50) in [6] (setting [14]) of 280 nM.

For the compound `O=C(N[C@H](Cc1ccccc1)C(=O)Nc1cc(Cl)ccc1N1CCNCC1)c1ccccc1F` [IX-274a, (R)—N-(1-((5-chloro-2-(piperazin-1-yl)phenyl)amino)-1-oxo-3-phenylpropan-2-yl)-2-fluorobenzamide], the MIC is 0.073 µg/mL (≈ 0.152 µM) in series [2] (setting [12]), 0.39 µg/mL (≈ 0.811 µM) in series [8], 0.78 µg/mL (≈ 1.62 µM) in series [5] (setting [13]) and at least 0.073 µg/mL in series [9]. For the same compound, the IC50 was 17 nM in series [6] (setting [14]); ≥ 10 nM and 10 to 74 nM in series [6] (setting [11]).

In the case of `Cc1ccccc1C(=O)NC(Cc1ccccc1)C(=O)Nc1cc(Cl)ccc1N1CCNCC1` (centres unmarked) [IX-275, N-(1-((5-chloro-2-(piperazin-1-yl)phenyl)amino)-1-oxo-3-phenyl-propan-2-yl)-2-methylbenzamide], the MIC in series [2] (setting [12]) is 0.39 µg/mL (≈ 0.818 µM); in [8], 0.78 µg/mL (≈ 1.64 µM); in [5] (setting [13]), 1.56 µg/mL (≈ 3.27 µM). Further, the “MCC mammalian cells Vero E6 ATCC CRL1586” value in series [7] came to 12.5 µg/mL. The “cross-resistance of AAP1-resistant mutants to the compound” value in series [3] is on record as “cross-resistance”. The compound further returned an IC50 in series [6] (setting [14]) of 100 nM.

The values are drawn from patent US9919998B2, “Antibacterial agents: Nα-aroyl-N-aryl-phenylalaninamides” (priority 2014, dated 2018).
